In patent US20230374015A1, “INHIBITORS OF FIBROBLAST GROWTH FACTOR RECEPTOR KINASES” (Kinnate Biopharma Inc., priority 2020, published 2023):

Target: FGFR2 (Homo sapiens, UniProt P21802)
Experiment: FGFR2 Kinase Protocol - Condition 2 (Reaction Biology HotSpot radiometric kinase assay, no preincubation)
Assay type: biochemical
Conditions: poly[Glu:Tyr] (4:1) 0.2 mg/ml, ATP 100 microM, 2 hr room temperature
Protocol: Example 2: FGFR2 Kinase Protocol—Condition 2
The Reaction Biology HotSpot assay platform (http://www.reactionbiology.com) was used to measure kinase/inhibitor interactions as described previously (Anastassiadis et al., 2011). In brief, for each reaction, kinase and substrate were mixed in a buffer containing 20 mM HEPES (pH 7.5), 10 mM MgCl2, 1 mM EGTA, 0.02% Brij35, 0.02 mg/mL BSA, 0.1 mM Na3VO4, 2 mM DTT, and 1% DMSO. All compounds were in powder form and freshly solubilized in DMSO for assays. Compounds were then added to each reaction mixture via acoustic dispense using an ECHO 550 nanoliter dispenser. For Human FGFR2 wildtype testing, a peptide substrate, poly[Glu:Tyr] (4:1) was used to promote the reaction at a concentration of 0.2 mg/ml. For Human FGFR2 (V564F) testing, a peptide substrate, poly[Glu:Tyr] (4:1) was used to promote the reaction at a concentration of 0.2 mg/ml. ATP concentration for all assays was maintained at 100 micromolar. Compounds were tested in 10-dose IC50 mode with a 3-fold serial dilution. Compounds were added to plates and ATP was added directly to the wells. ATP (Sigma-Aldrich, St. Louis, MO 63178) and [g33P] ATP (specific activity 10 microCi/microliter) purchased at PerkinElmer (Boston, MA, 02118 Cat #BLU 003H250UC) were added at a final total concentration of 100 microM to each well with no preincubation. Reactions were carried out at room temperature for 2 hr and spotted onto P81 ion exchange cellulose chromatography paper (Reaction Biology). Filter paper was washed in 0.75% phosphoric acid to remove unincorporated ATP. The percent remaining kinase activity relative to a vehicle-containing (DMSO) kinase reaction was calculated for each kinase/inhibitor pair. IC50 values were calculated using Dotmatics Knowledge Solutions Studies curve fitting (Dotmatics, Bishops Stortford, UK, CM23).

Chain of FGFR2 (P21802 22-821): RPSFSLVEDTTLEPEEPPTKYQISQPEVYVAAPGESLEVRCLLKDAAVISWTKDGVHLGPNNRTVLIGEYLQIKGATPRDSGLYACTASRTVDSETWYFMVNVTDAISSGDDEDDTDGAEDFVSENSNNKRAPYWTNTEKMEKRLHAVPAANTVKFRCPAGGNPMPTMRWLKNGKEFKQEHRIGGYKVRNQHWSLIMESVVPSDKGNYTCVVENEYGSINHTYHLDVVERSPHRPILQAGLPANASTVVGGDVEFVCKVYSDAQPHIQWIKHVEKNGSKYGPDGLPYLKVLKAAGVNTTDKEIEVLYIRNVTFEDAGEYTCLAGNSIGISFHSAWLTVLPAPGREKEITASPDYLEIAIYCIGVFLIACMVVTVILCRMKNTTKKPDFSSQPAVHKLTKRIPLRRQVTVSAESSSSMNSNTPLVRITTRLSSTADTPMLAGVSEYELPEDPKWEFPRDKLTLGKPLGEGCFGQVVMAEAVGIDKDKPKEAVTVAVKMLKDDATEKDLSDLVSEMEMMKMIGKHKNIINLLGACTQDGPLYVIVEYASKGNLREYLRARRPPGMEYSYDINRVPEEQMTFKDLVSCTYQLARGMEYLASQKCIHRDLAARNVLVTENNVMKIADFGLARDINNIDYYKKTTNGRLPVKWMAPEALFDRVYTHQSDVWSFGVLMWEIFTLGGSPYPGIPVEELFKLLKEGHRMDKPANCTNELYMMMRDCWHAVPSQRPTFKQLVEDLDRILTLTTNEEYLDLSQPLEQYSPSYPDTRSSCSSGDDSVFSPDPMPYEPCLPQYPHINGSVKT

SMILES | IC50
C=CC(=O)N1C[C@@H](c2nc(C#Cc3cc4ncn(C5CC5)c4cc3F)c3c(N)ncnn23)C[C@@H]1COC [Example 199, 1-[(2R,4S)-4-{4-Amino-5-[2-(1-cyclopropyl-6-fluoro-1,3-benzodiazol-5-yl)ethynyl]imidazo[4,3-f][1,2,4]triazin-7-yl}-2-(methoxymethyl)pyrrolidin-1-yl]prop-2-en-1-one] | ≤ 100 nM
C=CC(=O)N1C[C@@H](n2nc(C#Cc3cc4ncn(CC)c4cc3F)c3c(N)nccc32)C[C@@H]1C [Example 166, 1-((2S,4S)-4-(4-amino-3-((1-ethyl-6-fluoro-1H-benzo[d]imidazol-5-yl)ethynyl)-1H-pyrazolo[4,3-c]pyridin-1-yl)-2-methylpyrrolidin-1-yl)prop-2-en-1-one] | ≤ 100 nM
C=CC(=O)N1C[C@@H](n2cc(C#Cc3c(F)cc4c(ncn4C(F)F)c3F)c3c(N)ncnc32)C[C@@H]1COC [Example 69, 1-[(2R,4S)-4-(4-Amino-5-[2-[1-(difluoromethyl)-4,6-difluoro-1,3-benzodiazol-5-yl]ethynyl]pyrrolo[2,3-d]pyrimidin-7-yl)-2-(methoxymethyl)pyrrolidin-1-yl]prop-2-en-1-one] | ≤ 100 nM
C=CC(=O)N1C[C@@H](n2nc(C#Cc3c(Cl)cc4c(ncn4C)c3F)c3c(N)ncnc32)C[C@@H]1COC [Example 104, 1-[(2R,4S)-4-[4-Amino-3-[2-(6-chloro-4-fluoro-1-methyl-1,3-benzodiazol-5-yl)ethynyl]pyrazolo[3,4-d]pyrimidin-1-yl]-2-(methoxymethyl)pyrrolidin-1-yl]prop-2-en-1-one] | ≤ 100 nM
C=CC(=O)N1C[C@@H](n2cc(C#Cc3c(F)cc4c(ncn4C)c3F)c3c(N)ncnc32)C[C@@H]1COC(F)(F)F [Example 68, 1-((2R,4S)-4-(4-Amino-5-((4,6-difluoro-1-methyl-1H-benzo[d]imidazol-5-yl)ethynyl)-7H-pyrrolo[2,3-d]pyrimidin-7-yl)-2-((trifluoromethoxy)methyl)pyrrolidin-1-yl)prop-2-en-1-one] | ≤ 100 nM
C=CC(=O)N1C[C@@H](n2nc(C#Cc3cc4ncn(C)c4cc3F)c3c(N)ncnc32)C[C@@H]1C(F)F [Example 177, 1-((2R,4S)-4-(4-amino-3-((6-fluoro-1-methyl-1H-benzo[d]imidazol-5-yl)ethynyl)-1H-pyrazolo[3,4-d]pyrimidin-1-yl)-2-(difluoromethyl)pyrrolidin-1-yl)prop-2-en-1-one] | ≤ 100 nM
C=CC(=O)N1C[C@@H](n2cc(C#Cc3cc4nc(C)n(C(F)F)c4cc3Cl)c3c(N)ncnc32)C[C@@H]1COC [Example 131, 1-[(2R,4S)-4-(4-Amino-5-{2-[6-chloro-1-(difluoromethyl)-2-methyl-1,3-benzodiazol-5-yl]ethynyl}pyrrolo[2,3-d]pyrimidin-7-yl)-2-(methoxymethyl)pyrrolidin-1-yl]prop-2-en-1-one] | ≤ 100 nM
C=CC(=O)N1C[C@@H](n2cc(C#Cc3c(Cl)cc4c(nc(C)n4C)c3F)c3c(N)ncnc32)C[C@@H]1COC [Example 113, 1-((2R,4S)-4-(4-Amino-5-((6-chloro-4-fluoro-1,2-dimethyl-1H-benzo[d]imidazol-5-yl)ethynyl)-7H-pyrrolo[2,3-d]pyrimidin-7-yl)-2-(methoxymethyl)pyrrolidin-1-yl)prop-2-en-1-one] | ≤ 100 nM
C=CC(=O)N1C[C@@H](n2cc(C#Cc3cc4ncn(CC)c4cc3Cl)c3c(N)ncnc32)C[C@@H]1COC [Example 93, 1-[(2R,4S)-4-[4-Amino-5-[2-(6-chloro-1-ethyl-1,3-benzodiazol-5-yl)ethynyl]pyrrolo[2,3-d]pyrimidin-7-yl]-2-(methoxymethyl)pyrrolidin-1-yl]prop-2-en-1-one] | ≤ 100 nM
C=CC(=O)N1C[C@@H](n2nc(C#Cc3cc4ncn(C)c4cc3Cl)c3c(N)nccc32)C[C@@H]1COC [Example 98, 1-[(2R,4S)-4-[4-Amino-3-[2-(6-chloro-1-methyl-1,3-benzodiazol-5-yl)ethynyl]pyrazolo[4,3-c]pyridin-1-yl]-2-(methoxymethyl)pyrrolidin-1-yl]prop-2-en-1-one] | ≤ 100 nM

Now from value to molecule:

IC50 | SMILES
≤ 100 nM | C=CC(=O)N1C[C@@H](n2nc(C#Cc3cc4ncn(C)c4cc3Cl)c3c(N)nccc32)C[C@@H]1C(F)F [Example 172, 1-((2R,4S)-4-(4-amino-3-((6-chloro-1-methyl-1H-benzo[d]imidazol-5-yl)ethynyl)-1H-pyrazolo[4,3-c]pyridin-1-yl)-2-(difluoromethyl)pyrrolidin-1-yl)prop-2-en-1-one]
≤ 100 nM | C=CC(=O)N1C[C@@H](n2nc(C#Cc3c(F)cc4c(ncn4CC)c3F)c3c(N)ncnc32)C[C@@H]1COC [Example 85, 1-[(2R,4S)-4-[4-Amino-3-[2-(1-ethyl-4,6-difluoro-1,3-benzodiazol-5-yl)ethynyl]pyrazolo[3,4-d]pyrimidin-1-yl]-2-(methoxymethyl)pyrrolidin-1-yl]prop-2-en-1-one]
≤ 100 nM | C=CC(=O)N1CC[C@H](n2nc(C#Cc3cc4ncn(CC)c4cc3Cl)c3c(N)ncnc32)C1 [Example 132, 1-[(3S)-3-{4-Amino-3-[2-(6-chloro-1-ethyl-1,3-benzodiazol-5-yl)ethynyl]pyrazolo[3,4-d]pyrimidin-1-yl}pyrrolidin-1-yl]prop-2-en-1-one]
≤ 100 nM | C=CC(=O)N1CC[C@H](n2nc(C#Cc3cc4ncn(C)c4cc3Cl)c3c(N)ncnc32)C1 [Example 147, 1-[(3S)-3-{4-Amino-3-[2-(6-chloro-1-methyl-1,3-benzodiazol-5-yl)ethynyl]pyrazolo[3,4-d]pyrimidin-1-yl}pyrrolidin-1-yl]prop-2-en-1-one]
≤ 100 nM | C=CC(=O)N1C[C@@H](n2cc(C#Cc3cc4ncn(CC)c4cc3F)c3c(N)ncnc32)C[C@@H]1COC [Example 80, 1-[(2R,4S)-4-[4-Amino-5-[2-(1-ethyl-6-fluoro-1,3-benzodiazol-5-yl)ethynyl]pyrrolo[2,3-d]pyrimidin-7-yl]-2-(methoxymethyl)pyrrolidin-1-yl]prop-2-en-1-one]
≤ 100 nM | C=CC(=O)N1C[C@@H](n2nc(C#Cc3cc4nc(C)[nH]c4cc3Cl)c3c(N)ncnc32)C[C@@H]1COC [Example 99, 1-[(2R,4S)-4-[4-Amino-3-[2-(6-chloro-2-methyl-1H-1,3-benzodiazol-5-yl)ethynyl]pyrazolo[3,4-d]pyrimidin-1-yl]-2-(methoxymethyl)pyrrolidin-1-yl]prop-2-en-1-one]
≤ 100 nM | C=CC(=O)N1C[C@@H](n2nc(C#Cc3cc4ncn(CC)c4cc3F)c3c(N)ncnc32)C[C@@H]1C [Example 163, 1-((2S,4S)-4-(4-amino-3-((1-ethyl-6-fluoro-1H-benzo[d]imidazol-5-yl)ethynyl)-1H-pyrazolo[3,4-d]pyrimidin-1-yl)-2-methylpyrrolidin-1-yl)prop-2-en-1-one]
≤ 100 nM | C=CC(=O)N1C[C@@H](n2nc(C#Cc3cc4ncn(C)c4cc3F)c3c(N)ncnc32)C[C@@H]1C [Example 151, 1-((2S,4S)-4-(4-amino-3-((1-methyl-6-fluoro-1H-benzo[d]imidazol-5-yl)ethynyl)-1H-pyrazolo[3,4-d]pyrimidin-1-yl)-2-methylpyrrolidin-1-yl)prop-2-en-1-one]
≤ 100 nM | C=CC(=O)N1C[C@@H](n2nc(C#Cc3ccc4scnc4c3)c3c(N)ncnc32)C[C@@H]1COC [Example 112, 1-((2R,4S)-4-(4-Amino-3-(benzo[d]thiazol-5-ylethynyl)-1H-pyrazolo[3,4-d]pyrimidin-1-yl)-2-(methoxymethyl)pyrrolidin-1-yl)prop-2-en-1-one]
≤ 100 nM | C=CC(=O)N1C[C@@H](n2nc(C#Cc3cc4ncn(C)c4cc3F)c3c(N)nccc32)C[C@@H]1COC [Example 74, 1-[(2R,4S)-4-[4-Amino-3-[2-(6-fluoro-1-methyl-1,3-benzodiazol-5-yl)ethynyl]pyrazolo[4,3-c]pyridin-1-yl]-2-(methoxymethyl)pyrrolidin-1-yl]prop-2-en-1-one]
≤ 100 nM | C=CC(=O)N1CC[C@H](n2nc(C#Cc3cc4ncn(C5CC5)c4cc3F)c3c(N)ncnc32)C1 [Example 146, (S)-1-(3-(4-Amino-3-((1-cyclopropyl-6-fluoro-1H-benzo[d]imidazol-5-yl)ethynyl)-1H-pyrazolo[3,4-d]pyrimidin-1-yl)pyrrolidin-1-yl)prop-2-en-1-one]
100 to 1000 nM | C=CC(=O)N1C[C@@H](n2nc(C#Cc3ccn4ncnc4c3)c3c(N)ncnc32)C[C@@H]1COC [Example 114, 1-[(2R,4S)-4-[4-Amino-3-(2-[[1,2,4]triazolo[1,5-a]pyridin-7-yl]ethynyl)pyrazolo[3,4-d]pyrimidin-1-yl]-2-(methoxymethyl)pyrrolidin-1-yl]prop-2-en-1-one]
≤ 100 nM | C=CC(=O)N1C[C@@H](n2cc(C#Cc3cc4ncn(C)c4cc3Cl)c3c(N)ncnc32)C[C@@H]1COC [Example 91, 1-[(2R,4S)-4-[4-Amino-5-[2-(6-chloro-1-methyl-1,3-benzodiazol-5-yl)ethynyl]pyrrolo[2,3-d]pyrimidin-7-yl]-2-(methoxymethyl)pyrrolidin-1-yl]prop-2-en-1-one]
